Source: US20120276200A1, “FORMULATIONS OF QUINOLINONES” (priority 2005, published 2012)

Assay: Hygroscopicity, DVS experiment (moisture induced weight change)
Assay type: physicochemical
Description: All DVS measurements were carried out at 2.5% relative humidity change per hour.

SMILES: CC(O)C(=O)O.CN1CCN(c2ccc3nc(-c4c(N)c5c(F)cccc5[nH]c4=O)[nH]c3c2)CC1 [Lactate trial 1, Lactic Acid salt of 4-Amino-5-fluoro-3-[6-(4-methyl-piperazin-1-yl)-1H-benzimidazol-2-yl]-1H-quinolin-2-one]
- Moisture induced % weight change (55% RH, listed as Lactate trial 3): 0.08%
- Water uptake in DVS experiment (RH above 90%, not completely reversible): significant water uptake
- Hygroscopicity in DVS experiment (below about 80% RH): not hygroscopic

SMILES: CN1CCN(c2ccc3nc(-c4c(N)c5c(F)cccc5[nH]c4=O)[nH]c3c2)CC1.O=C(O)CC(O)C(=O)O [Malate trial 1]
- Moisture induced % weight change (55% RH, listed as Malate trial 3): 0.08%
- Moisture induced % weight change (95% RH, listed as Malate trial 3): 0.30%
